This experiment relates to symmetric dimethylation of arginine (SDMA) of PRMT5 substrates in MCF-7 cells. Put plainly: PRMT5 Cell Target Engagement (TE) Assay. The conditions noted are these: Homo sapiens, MCF7, 72 h; MCF-7 cells treated for 3 days; nuclear SDMA by high content imaging; top concentration 10000 nM. Format: cell-based. An excerpt: PRMT5 Cell Target Engagement (TE) Assay
The PRMT5 TE assay is a biomarker assay for identifying compounds that inhibit symmetric dimethylation of arginine (SDMA) of PRMT5 substrates. The following substrates have been reported for PRMT5: Histone H2A and H4 R3, Histone H3 R2, Histone 1-13 R8, spliceosome Sm proteins, ribosomal protein RPS10, p53, FEN1, nucleoplasmin, nucleolin, EGFR and EBNA. The assay will focus on detecting symnetrically dimethylated nuclear proteins using high content imaging technology. Detection of the expression of symmetrically dimethylated nuclear proteins is through a mixture of primary rabbit monoclonal antibodies to SDMA (CST 13222) which in turn recognized by an Alexafluor 488 dye-conjugated anti-rabbit IgG secondary antibody. The IN Cell Analyzer 2200 or Opera-Phenix measures nuclear Alexafluor 488 fluorescent dye intensity that is directly related to the level of expression of symmetrically dimethylated nuclear proteins at the single cell level. Nuclear AF488 dye intensities are compared to the mean value for DMSO treated cells (MIN) to report percent of inhibition for each compound-treated well.
In this assay, the cell potency (EC50) of each compound was determined from a ten point (1:3 serial dilution; top compound concentration of 10000 nM) titration curve using the following outlined procedure. Each well of a BD falcon collagen coated black/clear bottom 384-well plate was seeded with 4000 MCF-7 cells in 30 pal media and allowed to attach for 5 hours. Media is ATCC-formulated Eagle's Minimum Essential Medium, Catalog No. 30-2003. The following components were added to the base medium: 0.01 mg/mL human recombinant insulin; fetal bovine serum to a final concentration of 10%. Additional 30 pal of media containing 2× compounds were added to each well. Cells were treated for 3 days in 37° C. CO2 incubator. On day 3, cells were fixed with Cytofix, permeabilized with 0.4% Triton-X-100/Cytofix, and washed with D-PBS without Ca/Mg. Cells were blocked with Licor Odessey blocking reagent for 1 hour at room temperature, followed by incubation with anti-SDMA (1:1000) antibody at 4° C. overnight. 1° antibody was removed, followed by three washings with DPBS without Ca/Mg and 0.05% Tween20. Hoechst (5 μg/mL), Cell Mask deep stain (1:2000) and Alexa488-conjugated goat anti-rabbit IgG (2 μg/mL) was added for 1 hour at room temperature. A final washing step (three washes) was performed before sealing plate for imaging on in Cell Analyzer 2200 or Opera-Phenix. Images from analyzer were uploaded to Columbus for image analysis. IC50 values were determined by 4 parameters robust fit of percent fluorescence units vs. (Log 10) compound concentrations.
In the case of `C[C@@]1(O)[C@@H](COc2ccc3cc(Br)c(N)nc3c2)C[C@@H](n2ccc3c(Cl)ncnc32)[C@@H]1O` [Example 1], a half-maximal effect (EC50) was put at 18 nM.
Compound `C[C@@]1(O)[C@@H](COc2ccc3cc(Br)c(N)nc3c2)C[C@@H](n2ccc3c(N)ncnc32)[C@@H]1O` [Example 2] gave an EC50 of 0.7 nM.
The compound `C#C[C@@]1(O)[C@@H](COc2ccc3cc(Br)c(N)nc3c2)O[C@@H](n2ccc3c(N)ncnc32)[C@@H]1O` [Example 3, (2R,3S,4R,5R)-2-(((2-amino-3-bromoquinolin-7-yl)oxy)methyl)-5-(4-amino-7H-pyrrolo[2,3-d]pyrimidin-7-yl)-3-ethynyltetrahydrofuran-3,4-diol] showed a 50% effective concentration (EC50) of 20 nM.
`C[C@]1(CCc2ccc3cc(Br)c(N)nc3c2)O[C@@H](n2ccc3c(N)ncnc32)[C@H](O)[C@]1(C)O` [Example 4, (2R,3S,4R,5R)-2-(2-(2-amino-3-bromoquinolin-7-yl)ethyl)-5-(4-amino-7H-pyrrolo[2,3-d]pyrimidin-7-yl)-2,3-dimethyltetrahydrofuran-3,4-diol] yielded an EC50 of 186 nM.
The same measure for `Nc1nc2cc(O[C@H]3CC[C@@]4(O)[C@@H]3O[C@@H](n3ccc5c(Cl)ncnc53)[C@@H]4O)ccc2cc1Br` [Example 5, (2R,3R,3aS,6S,6aR)-6-((2-amino-3-bromoquinolin-7-yl)oxy)-2-(4-chloro-7H-pyrrolo[2,3-d]pyrimidin-7-yl)hexahydro-2H-cyclopenta[b]furan-3,3a-diol]: 19 nM; for `Nc1nc2cc(O[C@H]3CC[C@@]4(O)[C@@H]3O[C@@H](n3ccc5c(N)ncnc53)[C@@H]4O)ccc2cc1Br` [Example 6, (2R,3R,3aS,6S,6aR)-6-((2-amino-3-bromoquinolin-7-yl)oxy)-2-(4-amino-7H-pyrrolo[2,3-d]pyrimidin-7-yl)hexahydro-2H-cyclopenta[b]furan-3,3a-diol]: 1.2 nM.
For the compound `Cc1ncnc2c1ccn2[C@@H]1O[C@@H]2[C@@H](Oc3ccc4cc(Br)c(N)nc4c3)CC[C@]2(O)[C@H]1O` [Example 7, (2R,3R,3aS,6S,6aR)-6-((2-amino-3-bromoquinolin-7-yl)oxy)-2-(4-methyl-7H-pyrrolo[2,3-d]pyrimidin-7-yl)hexahydro-2H-cyclopenta[b]furan-3,3a-diol], the EC50 stood at 4.8 nM.
The same measure for `Cc1ncnc2c1ccn2[C@@H]1O[C@@H]2[C@H](Cc3ccc4cc(Br)c(N)nc4c3)CC[C@]2(O)[C@H]1O` [Example 8, (2R,3R,3aS,6S,6aR)-6-((2-amino-3-bromoquinolin-7-yl)methyl)-2-(4-methyl-7H-pyrrolo[2,3-d]pyrimidin-7-yl)hexahydro-2H-cyclopenta[b]furan-3,3a-diol]: 0.5 nM; for `Nc1nc2cc(C[C@@H]3CC[C@@]4(O)[C@@H]3O[C@@H](n3ccc5c(N)ncnc53)[C@@H]4O)ccc2cc1Br` [Example 9, (2R,3R,3aS,6S,6aR)-6-((2-amino-3-bromoquinolin-7-yl)methyl)-2-(4-amino-7H-pyrrolo[2,3-d]pyrimidin-7-yl)hexahydro-2H-cyclopenta[b]furan-3,3a-diol]: 1.3 nM; for `C[C@@]1(O)[C@@H](COc2ccc3cc(Br)c(N)nc3c2)O[C@@H](n2ccc3c(N)ncnc32)[C@@H]1O` [Example 10, (2R,3S,4R,5R)-2-(((2-amino-3-bromoquinolin-7-yl)oxy)methyl)-5-(4-amino-7H-pyrrolo[2,3-d]pyrimidin-7-yl)-3-methyltetrahydrofuran-3,4-diol]: 6.4 nM.
`C[C@@]1(O)[C@@H](COc2ccc3cc(Br)c(N)nc3c2)O[C@@H](n2ccc3c(Cl)ncnc32)[C@@H]1O` [Example 11, (2R,3S,4R,5R)-2-{[(2-amino-3-bromoquinolin-7-yl)oxy]methyl}-5-(4-chloro-7H-pyrrolo[2,3-d]pyrimidin-7-yl)-3-methyltetrahydrofuran-3,4-diol] yielded a half-maximal effective concentration (EC50) of 131 nM.

The values are drawn from US12173026B2, “PRMT5 inhibitors” (Merck Sharp & Dohme LLC, priority 2018, dated 2024).
